In assay [1] the test system is CCL17 secretion in peripheral human whole blood. Put plainly: Human Whole Blood (HWB) CCL17 TR-FRET Assay (IL-13 stimulated CCL17 secretion). The conditions noted are these: Homo sapiens, 48 h, inhibition of CCL17 secretion in human whole blood, 10 ng/mL IL13, 48 hours. The format is cell-based. An outline of the steps: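 IC50 values reflect inhibition of IL-13-driven CCL17 release in human whole blood. Blood was preincubated with compound 2 h, stimulated 48 h at 37 °C with IL-13 (10 ng/mL final), and serum CCL17 was measured by TR-FRET.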

Another assay concerns the target T1, STAT6 (Homo sapiens, UniProt P42226).
T1 construct: stably transfected HaCaT keratinocyte cell line, which expresses NanoLuc luciferase reporter gene under the transcriptional control of the STAT6 responsive promoter; endogenous in cells; host or cells: HaCaT keratinocyte reporter cell line (stably transfected with a NanoLuc reporter)
T1 sequence (P42226 1-847): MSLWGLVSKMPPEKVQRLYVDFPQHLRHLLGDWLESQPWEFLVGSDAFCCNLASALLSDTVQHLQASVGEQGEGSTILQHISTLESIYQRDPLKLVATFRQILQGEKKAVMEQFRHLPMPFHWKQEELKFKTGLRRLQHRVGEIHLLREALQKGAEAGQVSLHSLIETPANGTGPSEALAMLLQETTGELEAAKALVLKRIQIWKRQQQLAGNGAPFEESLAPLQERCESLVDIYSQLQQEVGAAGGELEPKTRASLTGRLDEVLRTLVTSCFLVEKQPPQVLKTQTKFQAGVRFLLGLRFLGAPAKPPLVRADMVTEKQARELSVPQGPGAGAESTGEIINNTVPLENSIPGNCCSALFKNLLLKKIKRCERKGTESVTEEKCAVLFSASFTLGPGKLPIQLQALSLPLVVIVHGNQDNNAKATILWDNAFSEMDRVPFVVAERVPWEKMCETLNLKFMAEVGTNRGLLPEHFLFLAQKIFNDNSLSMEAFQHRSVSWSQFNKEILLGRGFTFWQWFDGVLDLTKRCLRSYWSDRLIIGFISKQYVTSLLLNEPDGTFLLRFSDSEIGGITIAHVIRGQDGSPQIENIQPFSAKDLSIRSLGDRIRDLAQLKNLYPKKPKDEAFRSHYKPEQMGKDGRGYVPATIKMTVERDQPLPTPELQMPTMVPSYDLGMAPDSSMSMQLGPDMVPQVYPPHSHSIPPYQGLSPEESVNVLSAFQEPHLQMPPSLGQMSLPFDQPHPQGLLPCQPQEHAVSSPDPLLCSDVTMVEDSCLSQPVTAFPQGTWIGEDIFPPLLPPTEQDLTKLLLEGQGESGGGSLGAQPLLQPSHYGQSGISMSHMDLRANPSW
Put plainly: STAT6 Reporter Luciferase Assay (IL-13 stimulated HaCaT keratinocyte NanoLuc reporter cells). The assay is classed as cell-based. The conditions noted are these: STAT6 NanoLuc luciferase reporter, IL-13 stimulated HaCaT keratinocyte cells; read-out: Reporter EC50. An outline of the steps:
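Stably transfected HaCaT cells carrying NanoLuc under the STAT6-responsive IL-13Ra2 promoter were pre-treated with compound (11-point, 4-fold series, duplicate) for 2 h at 37 °C, then stimulated with 0.12 nM IL-13 for 4 h. Nano-Glo luminescence was read after 15 min.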
(In general: A reporter such as luciferase makes a cellular process visible.)

In general, IC50 refers to the concentration that inhibits the measured activity by half. Read a high IC50 as a need for much substance. In general, EC50 refers to the concentration needed to bring the measured effect to its halfway point.

In assay [1], `CC(C)n1nc(C(=O)NCc2ccc(-c3nnc[nH]3)cc2)c2c1CCN(c1ccc(C(=O)N(C)C)cn1)C2` [Example 40, N-(4-(4H-1,2,4-triazol-3-yl)benzyl)-5-(5-(dimethylcarbamoyl)pyridin-2-yl)-1-isopropyl-4,5,6,7-tetrahydro-1H-pyrazolo[4,3-c]pyridine-3-carboxamide] had an IC50 of 324 nM. Further, on STAT6, the 50% effective concentration (EC50) was 38 nM.
Take `Cc1ccnn1-c1ccc(N2CCc3c(c(C(=O)NCc4ccc(NC(=O)N(C)C)cc4)nn3C(C)C)C2)nc1` [Example 41, N-(4-(3,3-Dimethylureido)benzyl)-1-isopropyl-5-(5-(5-methyl-1H-pyrazol-1-yl)pyridin-2-yl)-4,5,6,7-tetrahydro-1H-pyrazolo[4,3-c]pyridine-3-carboxamide]: the IC50 in assay [1] was found to be 93 nM. Moreover, at STAT6, the concentration giving a half-maximal response (EC50) worked out at 3 nM.
For `CN(C)C(=O)Nc1ccc(CNC(=O)c2nc(C(F)(F)F)n3c2CN(c2ccc(-c4nccn4C)cn2)CC3)cc1` [Example 42, N-(4-(3,3-Dimethylureido)benzyl)-7-(5-(1-methyl-1H-imidazol-2-yl)pyridin-2-yl)-3-(trifluoromethyl)-5,6,7,8-tetrahydroimidazo[1,5-a]pyrazine-1-carboxamide] the same measures were 136 nM and 10 nM.
Compound `CC(C)n1nc(C(=O)NCc2ccc(-c3nccc(=O)[nH]3)cc2)c2c1CCN(c1ccc(C(=O)N(C)C)cn1)C2` [Example 43, 5-(5-(Dimethylcarbamoyl)pyridin-2-yl)-1-isopropyl-N-(4-(6-oxo-1,6-dihydropyrimidin-2-yl)benzyl)-4,5,6,7-tetrahydro-1H-pyrazolo[4,3-c]pyridine-3-carboxamide] came in with a 50% inhibitory concentration (IC50) in assay [1] of 1300 nM. Moreover, the EC50 at STAT6 amounted to 286 nM.
Take `CC(C)n1nc(C(=O)NCc2ccc(-c3cccc(=O)[nH]3)cc2)c2c1CCN(c1ccc(C(=O)N(C)C)cn1)C2` [Example 44, 5-(5-(dimethylcarbamoyl)pyridin-2-yl)-1-isopropyl-N-(4-(6-oxo-1,6-dihydropyridin-2-yl)benzyl)-4,5,6,7-tetrahydro-1H-pyrazolo[4,3-c]pyridine-3-carboxamide]: in assay [1], it took 5400 nM to reach half-maximal inhibition (IC50). The 50% effective concentration (EC50) at STAT6 is 503 nM.
`CC(C)n1nc(C(=O)NCc2ccc(NC(=O)N(C)C)cc2)c2c1CCN(c1ccc(-c3nccn3C)cn1)C2` [Example 45, N-(4-(3,3-Dimethylureido)benzyl)-1-isopropyl-5-(5-(1-methyl-1H-imidazol-2-yl)pyridin-2-yl)-4,5,6,7-tetrahydro-1H-pyrazolo[4,3-c]pyridine-3-carboxamide] registered a concentration for half-maximal inhibition (IC50) in assay [1] of 50 nM. Also, at STAT6, the concentration for a half-maximal effect (EC50) came to 4 nM.
In assay [1], `CN(C)C(=O)Nc1ccc(CNC(=O)c2nn(C3CC3)c3c2CN(c2ccc(-c4nccn4C)cn2)CC3)cc1` [Example 46, 1-cyclopropyl-N-(4-(3,3-dimethylureido)benzyl)-5-(5-(1-methyl-1H-imidazol-2-yl)pyridin-2-yl)-4,5,6,7-tetrahydro-1H-pyrazolo[4,3-c]pyridine-3-carboxamide] displayed a 50% inhibitory concentration (IC50) of 110 nM. The EC50 on STAT6 is 9 nM.
On the same counts, the results for `Cc1ccn(-c2ccc(N3CCc4c(c(C(=O)NCc5ccc(NC(=O)N(C)C)cc5)nn4C(C)C)C3)nc2)n1` [Example 47, N-(4-(3,3-dimethylureido)benzyl)-1-isopropyl-5-(5-(3-methyl-1H-pyrazol-1-yl)pyridin-2-yl)-4,5,6,7-tetrahydro-1H-pyrazolo[4,3-c]pyridine-3-carboxamide] are above 30000 nM and 1180 nM.
`CNC(=O)c1ccc(CNC(=O)c2csc3c2CN(c2ccc(C(=O)N(C)C)cn2)CC3)cc1` [Example 48, 5-(5-(dimethylcarbamoyl)pyridin-2-yl)-N-(4-(methylcarbamoyl)benzyl)-4,5,6,7-tetrahydrothieno[3,2-c]pyridine-3-carboxamide] had a concentration for half-maximal inhibition (IC50) in assay [1] of 3960 nM. In addition, on STAT6, the EC50 was 952 nM.
On the same counts, the results for `C[C@@H]1Cc2c(c(C(=O)NCc3ccc(NC(=O)N(C)C)cc3)nn2C)CN1c1ccc(C(=O)N(C)C)cn1` [Example 50, (R)-5-(5-(dimethylcarbamoyl)pyridin-2-yl)-N-(4-(3,3-dimethylureido)benzyl)-1,6-dimethyl-4,5,6,7-tetrahydro-1H-pyrazolo[4,3-c]pyridine-3-carboxamide] are 151 nM and 35 nM.
`C[C@H]1Cc2c(c(C(=O)NCc3ccc(NC(=O)N(C)C)cc3)nn2C)CN1c1ccc(C(=O)N(C)C)cn1` [Example 51, (S)-5-(5-(dimethylcarbamoyl)pyridin-2-yl)-N-(4-(3,3-dimethylureido)benzyl)-1,6-dimethyl-4,5,6,7-tetrahydro-1H-pyrazolo[4,3-c]pyridine-3-carboxamide]: the half-maximal inhibitory concentration (IC50) in assay [1] is 30 nM. Moreover, the concentration for a half-maximal effect (EC50) on STAT6 was 4 nM.
For `CN(C)C(=O)Nc1ccc(CNC(=O)c2nc(C(C)(F)F)n3c2CN(c2ccc(C(=O)N(C)C)cn2)CC3)cc1` [Example 52, 3-(1,1-difluoroethyl)-7-(5-(dimethylcarbamoyl)pyridin-2-yl)-N-(4-(3,3-dimethylureido)benzyl)-5,6,7,8-tetrahydroimidazo[1,5-a]pyrazine-1-carboxamide] the same measures were 64 nM and 9 nM.
Compound `CC1CCC(=O)N1c1ccc(N2CCc3c(c(C(=O)NCc4ccc(NC(=O)N(C)C)cc4)nn3C(C)C)C2)nc1` (centres unmarked) [Example 56, N-(4-(3,3-dimethylureido)benzyl)-1-isopropyl-5-(5-(2-methyl-5-oxopyrrolidin-1-yl)pyridin-2-yl)-4,5,6,7-tetrahydro-1H-pyrazolo[4,3-c]pyridine-3-carboxamide] had a half-maximal inhibitory concentration (IC50) in assay [1] of 369 nM. Moreover, at STAT6, the EC50 amounted to 13 nM.
For `CC(C)n1nc(C(=O)NCc2ccc(NC(=O)N(C)C)cc2)c2c1CCN(c1ccc(N3CCN(C)C3=O)cn1)C2` [Example 60, N-(4-(3,3-dimethylureido)benzyl)-1-isopropyl-5-(5-(3-methyl-2-oxoimidazolidin-1-yl)pyridin-2-yl)-4,5,6,7-tetrahydro-1H-pyrazolo[4,3-c]pyridine-3-carboxamide] the same measures were 910 nM and 32 nM.
In assay [1], `CC1CCN(c2ccc(N3CCc4c(c(C(=O)NCc5ccc(NC(=O)N(C)C)cc5)nn4C(C)C)C3)nc2)C1=O` (centres unmarked) [Example 61, N-(4-(3,3-dimethylureido)benzyl)-1-isopropyl-5-(5-(3-methyl-2-oxopyrrolidin-1-yl)pyridin-2-yl)-4,5,6,7-tetrahydro-1H-pyrazolo[4,3-c]pyridine-3-carboxamide] returned an IC50 of 2590 nM. In addition, the EC50 on STAT6 is 75 nM.
In the case of `CC(C)n1nc(C(=O)NCc2ccc(NC(=O)N(C)C)cc2)c2c1CCN(c1ccc(-n3ccnn3)cn1)C2` [Example 64, 5-(5-(1H-1,2,3-triazol-1-yl)pyridin-2-yl)-N-(4-(3,3-dimethylureido)benzyl)-1-isopropyl-4,5,6,7-tetrahydro-1H-pyrazolo[4,3-c]pyridine-3-carboxamide], the IC50 in assay [1] is 73 nM. Further, on STAT6, the EC50 is 4 nM.
On to `CC(C)n1nc(C(=O)NCc2ccc(NC(=O)N(C)C)cc2)c2c1CCN(c1ccc(N3CCC4(CC4)C3=O)cn1)C2` [Example 65, N-(4-(3,3-dimethylureido)benzyl)-1-isopropyl-5-(5-(4-oxo-5-azaspiro[2.4]heptan-5-yl)pyridin-2-yl)-4,5,6,7-tetrahydro-1H-pyrazolo[4,3-c]pyridine-3-carboxamide], for which the IC50 in assay [1] was found to be 28100 nM. Besides, the 50% effective concentration (EC50) at STAT6 is 208 nM.
For the compound `CC(C)n1nc(C(=O)NCc2ccc(NC(=O)N(C)C)cc2)c2c1CCN(c1ccc(N3C[C@@H](C)CC3=O)cn1)C2` [Example 66, (S)-N-(4-(3,3-dimethylureido)benzyl)-1-isopropyl-5-(5-(4-methyl-2-oxopyrrolidin-1-yl)pyridin-2-yl)-4,5,6,7-tetrahydro-1H-pyrazolo[4,3-c]pyridine-3-carboxamide], in assay [1], half-maximal inhibition (IC50) was put at 89 nM. Besides, the EC50 on STAT6 was determined as 13 nM.
As to `CC(C)n1nc(C(=O)NCc2ccc(NC(=O)N(C)C)cc2)c2c1CCN(c1ccc(N3C[C@H](C)CC3=O)cn1)C2` [Example 67, (R)-N-(4-(3,3-dimethylureido)benzyl)-1-isopropyl-5-(5-(4-methyl-2-oxopyrrolidin-1-yl)pyridin-2-yl)-4,5,6,7-tetrahydro-1H-pyrazolo[4,3-c]pyridine-3-carboxamide], the IC50 in assay [1] was determined as 5020 nM. In addition, on STAT6, the EC50 was 64 nM.

The record behind these values is patent publication US20250320213A1, “Nitrogen-Containing Heterocyclic Compounds” (Pfizer Inc., priority 2024, published 2025).
